# Test results published in US12527754B2, “Methods and compositions for preventing and treating metabolic syndrome induced by antipsychotic treatment and related diseases and conditions” (Tufts Medical Center, Inc., priority 2018, dated 2026).
# Legend:
# [1] = MetS induced by high-fat diet (HFD) in mice; assay type: in vivo; conditions: C57Bl/j male mice on HFD, benserazide 50 mg/day p.o., 12 weeks
# Protocol: In other experiments, we conducted a pre-clinical trial of benserazide on the development of MetS induced by high-fat diet (HFD). HFD was fed to C57Bl/j male mice (6 weeks of age). Benserazide, 50 mg/day, p.o., was administered for 12 weeks (five days/week). Differences (p<0.05) were considered as statistically significant (Mann-Whitney two-tailed test).
# [2] = GTT at day 71; C57BL female mice, N = 10
# Protocol: (§1) C57BL female mice (n=10 mice in each group) were treated with olanzapine (4 mg/kg, po) (control) or with a combination of olanzapine (4 mg/kg, po) and benserazide (100 mg/day, po), 5 days per week for 10 weeks.
# (§2) Body weight was checked two times per week. Glucose tolerance, a marker of IR, was determined by a glucose tolerance test (GTT) at the end of the study (day 71). In addition, blood samples were analyzed for cholesterol (total) and triglycerides.
# [3] = C57BL female mice, N = 10; end of 10-week treatment
# Protocol: as §1, §2
smiles,measurement,setting,value
"NC(CO)C(=O)NNCc1ccc(O)c(O)c1O (centres unmarked) [Benserazide, seryl-(2,3,4-trihydroxybenzyl)-hydrazide]","Elevation of blood cholesterol induced by HFD, change",[1]; five days/week,−17%
same,"Elevation of triglycerides induced by HFD, change",[1]; five days/week,−25%
same,"Excessive weight gain induced by HFD, change",[1]; five days/week,−40%
same,Glucose tolerance impairment induced by HFD,[1]; result in words,attenuated
same,Effect on weight gain induced by olanzapine,"benserazide 100 mg/day po with olanzapine 4 mg/kg po, 10 weeks, result in words",attenuated weight gain
Cc1cc2c(s1)Nc1ccccc1N=C2N1CCN(C)CC1 [Olanzapine],Glucose levels 90 minutes after ingestion of sugar,[2],520.55 ± 15.63
same,Glucose levels baseline (before ingestion of sugar),[2],183.25 ± 10.49
same,"Cholesterol (total, blood)",[3],172.33 ± 4.536
same,Triglycerides (blood),[3],151.00 ± 5.37
same,"Body weight, Day 1","C57BL female mice, n = 10, olanzapine 4 mg/kg po with or without benserazide 100 mg/day po, 5 days per week for 10 weeks, Day 1",17.4 ± 0.13
same,"Body weight, Day 71","C57BL female mice, n = 10, olanzapine 4 mg/kg po with or without benserazide 100 mg/day po, 5 days per week for 10 weeks, Day 71",34.0 ± 0.09
